Data on ten compounds can be found in patent US6861432B2, “Piperazine derivatives that destabilize androgen receptors” (Schering Aktiengesellschaft, priority 2001, dated 2005).

In one test the target is T1, androgen receptor (Homo sapiens, UniProt P10275, T878A).
T1 construct: 2*10^6 LNCaP cells in 6 ml of RPMI 1640 without phenol red are grown; endogenous in cells; host or cells: LNCaP (human prostate cell line)
T1 sequence (P10275 1-920 T878A): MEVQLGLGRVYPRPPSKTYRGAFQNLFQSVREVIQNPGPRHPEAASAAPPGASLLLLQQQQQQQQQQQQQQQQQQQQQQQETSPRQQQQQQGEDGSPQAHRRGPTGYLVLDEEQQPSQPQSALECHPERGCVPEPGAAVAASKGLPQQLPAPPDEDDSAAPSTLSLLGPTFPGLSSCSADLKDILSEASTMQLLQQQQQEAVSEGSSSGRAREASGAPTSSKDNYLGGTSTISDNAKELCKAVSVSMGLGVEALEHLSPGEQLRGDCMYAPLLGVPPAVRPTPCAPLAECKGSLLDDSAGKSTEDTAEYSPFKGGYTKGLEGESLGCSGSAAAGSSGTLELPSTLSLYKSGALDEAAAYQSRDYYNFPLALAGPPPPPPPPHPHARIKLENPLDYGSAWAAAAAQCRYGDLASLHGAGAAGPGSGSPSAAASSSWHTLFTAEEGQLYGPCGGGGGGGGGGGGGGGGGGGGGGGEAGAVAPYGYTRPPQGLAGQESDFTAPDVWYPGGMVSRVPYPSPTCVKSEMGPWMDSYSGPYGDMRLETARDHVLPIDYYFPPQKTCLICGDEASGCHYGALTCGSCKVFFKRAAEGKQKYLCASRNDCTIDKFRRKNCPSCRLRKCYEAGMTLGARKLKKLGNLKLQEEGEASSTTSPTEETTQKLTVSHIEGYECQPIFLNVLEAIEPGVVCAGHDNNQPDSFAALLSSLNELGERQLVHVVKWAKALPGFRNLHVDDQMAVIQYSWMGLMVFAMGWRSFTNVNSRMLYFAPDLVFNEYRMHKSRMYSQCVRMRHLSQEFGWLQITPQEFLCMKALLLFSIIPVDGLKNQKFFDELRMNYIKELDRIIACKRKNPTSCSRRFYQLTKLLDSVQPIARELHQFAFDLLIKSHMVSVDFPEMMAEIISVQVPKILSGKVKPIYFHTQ
Nature of the test: cell-based. The settings on record: LNCaP cells, 10 μM test substance, 48 h; AR/actin as percentage of DMSO control.
Take `CC1=C(CCCCCCN2CCN(S(=O)(=O)c3ccccc3)CC2)C(=O)N(c2ccc(C#N)c(C(F)(F)F)c2)C1=O` [Example 295, 4-[2,5-Dihydro-3-methyl-2,5-dioxo-4-[6-[4-(phenylsulfonyl)piperazin-1-yl]hexyl]-1H-pyrrol-1-yl]-2-(trifluoromethyl)benzonitrite]: the “AR Content [%] At 10 μM” value turned out to be 48%.

Still in this test, the particulars now being: LNCaP, 48 h, read-out: AR Content [%] At 10 μM.
For `CC1=C(CCCCN2CCN(C(=O)C3CCC3)CC2)C(=O)N(c2ccc(C#N)c(C(F)(F)F)c2)C1=O` [Example 93, 4-[3-[4-[4-(Cyclobutylcarbonyl)piperazin-1-yl]butyl]-2,5-dihydro-4-methyl-2,5-dioxo-1H-pyrrol-1-yl]-2-(trifluoromethyl)benzonitrile], the remaining activity at 10 µM was 53%.
As for `CC1=C(CCCCN2CCN(C(=O)c3ccc(N(C)C)cc3)CC2)C(=O)N(c2ccc(C#N)c(C(F)(F)F)c2)C1=O` [Example 96, 4-[3-[4-[4-[4-(Dimethylamino)benzoyl]piperazin-1-yl]butyl]-2,5-dihydro-4-methyl-2,5-dioxo-1H-pyrrol-1-yl]-2-(trifluoromethyl)benzonitrile], the remaining activity at 10 µM came out at 50%.
Still for that read-out and setting: under `CC1=C(CCCCN2CCN(C(=O)c3cccs3)CC2)C(=O)N(c2ccc(C#N)c(C(F)(F)F)c2)C1=O` [Example 99, 4-[2,5-Dihydro-3-methyl-2,5-dioxo-4-[4-[4-[(thien-2-yl)-carbonyl]piperazin-1-yl]butyl]-1H-pyrrol-1-yl]-2-(trifluoromethyl)benzonitrile] stands 66%.
`CC1=C(CCCCN2CCN(S(=O)(=O)c3ccc(C#N)cc3)CC2)C(=O)N(c2ccc(C#N)c(C(F)(F)F)c2)C1=O` [Example 121, 4-[3-[4-[4-[(4-Cyanophenyl)sulfonyl]piperazin-1-yl]butyl]-2,5-dihydro-4-methyl-2,5-dioxo-1H-pyrrol-1-yl]-2-(trifluoromethyl)benzonitrile]: the remaining activity at 10 µM turned out to be 53%.
Same read-out and setting: the same measure for `COc1ccc(C(=O)N2CCN(CCCCCC3=C(C)C(=O)N(c4ccc(C#N)c(C(F)(F)F)c4)C3=O)CC2)cc1OC` [Example 158, 4-[3-[5-[4-(3,4-Dimethoxybenzoyl)piperazin-1-yl]pentyl]-2,5-dihydro-4-methyl-2,5-dioxo-1H-pyrrol-1-yl]-2-(trifluoromethyl)benzonitrile]: 22%.
With `CC1=C(CCCCCN2CCN(S(=O)(=O)c3cccc4nsnc34)CC2)C(=O)N(c2ccc(C#N)c(C(F)(F)F)c2)C1=O` [Example 207, 4-[3-[5-[4-[(2,1,3-Benzothiadiazol-4-yl)sulfonyl]piperazin-1-yl]pentyl]-2,5-dihydro-4-methyl-2,5-dioxo-1H-pyrrol-1-yl]-2-(trifluoromethyl)benzonitrile], the remaining activity at 10 µM was found to be 42%.
On the same count and under the same terms, under `CC1=C(CCCCCCN2CCN(C(=O)COc3ccc(Cl)cc3)CC2)C(=O)N(c2ccc(C#N)c(C(F)(F)F)c2)C1=O` [Example 264, 4-[3-[6-[4-[(4-Chlorophenoxy)acetyl]piperazin-1-yl]hexyl]-2,5-dihydro-4-methyl-2,5-dioxo-1H-pyrrol-1-yl]-2-(trifluoromethyl)benzonitrile] stands 37%; under `CC1=C(CCCCCCN2CCN(C(=O)c3ccc(C#N)cc3)CC2)C(=O)N(c2ccc(C#N)c(C(F)(F)F)c2)C1=O` [Example 268, 4-[3-[6-[4-(4-Cyanobenzoyl)piperazin-1-yl]hexyl]-2,5-dihydro-4-methyl-2,5-dioxo-1H-pyrrol-1-yl]-2-(trifluoromethyl)benzonitrile], 73%; under `CC1=C(CCCCCCN2CCN(C(=O)CC(C)C)CC2)C(=O)N(c2ccc(C#N)c(C(F)(F)F)c2)C1=O` [Example 270, 4-[2,5-Dihydro-3-methyl-4-[6-[4-(3-methyl-1-oxobutyl)piperazin-1-yl]hexyl]-2,5-dioxo-1H-pyrrol-1-yl]-2-(trifluoromethyl)benzonitrile], 65%.
